Reference: PMC6099617, “Synthesis of Antibacterial Nisin–Peptoid Hybrids Using Click Methodology” (Molecules : A Journal of Synthetic Chemistry and Natural …, 2018)
In brackets after ≈: the same amount, converted by molar mass. Like-named read-outs stand apart in the source and are kept apart here. Square brackets hold non-standard residues; d marks the D form. Peptide text beside a SMILES is read from it. N(4-F-Bzl)Gly = O=C(O)CNCc1ccc(F)cc1; Gly(N-2-aminoethyl) = NCCNCC(=O)O; Nspe = C[C@H](NCC(=O)O)c1ccccc1; Nlys = NCCCCNCC(=O)O

How the values were obtained:
[1] = system: methicillin-resistant Staphylococcus aureus USA 300; experiment: microbe, parasite or virus in culture; settings: MRSA / USA300, read-out: MIC S. aureus (USA300)
[2] = system: methicillin-resistant Staphylococcus aureus USA 300
epithelial HepG2 cells = experiment: Cytotoxicity assay (alamarBlue cell viability), HepG2; assay type: cell-based; settings: 1 hour with compound 2–100 µM, then 24 hours
Method: (§1) Cytotoxicity analyses were performed in 96-well plates (Costar, Fisher Scientific) using alamarBlue® (Invitrogen) for cell viability detection using a modified protocol as previously described.9 The HepG2 or HaCaT cells were grown at 37 °C, 5 % CO2 in DMEM10 high glucose supplemented with heat-inactivated foetal bovine sera (FBS, 10 %; Biosera Ltd) and penicillin/streptomycin (P/S, 1 %). Cells were counted using a Neubauer Improved Haemocytometer. Cells were seeded 1 day prior to treatment in 96 well plates at a concentration of 2 x 10^5 cells mL-1 in 100 µL of medium (2 x 10^4 cells/well). Empty wells were filled with 100 µL PBS. After 24 hours, cells were incubated with the compounds in a dilution series in triplicate from 2–100 µM (5 mM stock solutions in DMSO; untreated cells with DMSO as a negative control) in 50 µL of the media for 1 hour. Afterwards, 40 µL of medium was removed from each well before the addition of 90 µL of the media, followed by incubation for 24 hours at 37 °C, 5 % CO2. Then, 10 µL of alamarBlue® (Invitrogen) was added to each well before a 2 hour incubation prior to assessing cell viability using a fluorescent plate reader (Biotek; λex 560 nm, λem 600 nm).

HaCaT keratinocytes = experiment: Cytotoxicity assay (alamarBlue cell viability), HaCaT; assay type: cell-based; settings: 1 hour with compound 2–100 µM, then 24 hours
Method: as §1

S. aureus = settings: had shown promising antibacterial activities; strain and reference not given; cited from earlier work

Row | Compound | MIC [1] [µM] | MIC S. aureus (USA300) ([2]; MRSA USA300, CAMHB, overnight incubation 35 °C, visual inspection, duplicate) [µM] | ED50 HepG2 (epithelial HepG2 cells) [µM] | MIC S. aureus (USA300) ([2]; USA 300) [µM] | ED50 HaCaT (HaCaT keratinocytes) [µM] | MIC against S. aureus (reason for choosing the sequences) (S. aureus)
1 | CN[C@H](CC(C)C)C(=O)N[C@H]1C(=O)N[C@@H](CC(N)=O)C(=O)N[C@H]2C(=O)N[C@H]3C(=O)N[C@H](C(=O)N[C@H](C(=O)O)c4cc(O)cc(O)c4-c4cc3ccc4O)[C@H](O)c3ccc(c(Cl)c3)Oc3cc2cc(c3O[C@@H]2O[C@H](CO)[C@@H](O)[C@H](O)[C@H]2O[C@H]2C[C@](C)(N)[C@H](O)[C@H](C)O2)Oc2ccc(cc2Cl)[C@H]1O [compound 7, Vancomycin] | 1 (≈ 1.45 µg/mL) |  |  |  |  | 
2 | C=C1NC(=O)[C@H]([C@@H](C)CC)NC(=O)[C@H](NC(=O)/C(=C/C)NC(=O)[C@@H](N)[C@@H](C)CC)CSC[C@@H](C(=O)N[C@H]2C(=O)N3CCC[C@H]3C(=O)NCC(=O)N[C@H](C(=O)N[C@@H](CCCCN)C(=O)O)CS[C@H]2C)NC(=O)[C@H](CC(C)C)NC1=O [compound 4, Nisin[1,2,3,4,5,6,7,8,9, 10, 11, 12], reference compound] |  | > 100 |  |  |  | 
3 | C[C@@H](c1ccccc1)N(CC(N)=O)C(=O)CN(C(=O)CN(CCCCN)C(=O)CN(Cc1ccc(F)cc1)C(=O)CN(Cc1ccc(F)cc1)C(=O)CN(CCCCN)C(=O)CN(C(=O)CN(C(=O)CN(CCCCN)C(=O)CN(Cc1ccc(F)cc1)C(=O)CN(Cc1ccc(F)cc1)C(=O)CNCCCCN)[C@@H](C)c1ccccc1)[C@@H](C)c1ccccc1)[C@@H](C)c1ccccc1 [1b, [(NLysNpfbNpfb)(NLysNspeNspe)]2] (H-[Nlys][N(4-F-Bzl)Gly][N(4-F-Bzl)Gly][Nlys][Nspe][Nspe][Nlys][N(4-F-Bzl)Gly][N(4-F-Bzl)Gly][Nlys][Nspe][Nspe]-NH2; N-terminus and C-terminus assumed) |  |  | 18 | 2 to 4 | 53 | below 2 µM
4 | C[C@@H](c1ccccc1)N(CC(N)=O)C(=O)CN(C(=O)CN(CCN)C(=O)CN(C(=O)CN(C(=O)CN(CCN)C(=O)CN(C(=O)CN(C(=O)CN(CCN)C(=O)CN(C(=O)CN(C(=O)CNCCN)[C@@H](C)c1ccccc1)[C@@H](C)c1ccccc1)[C@@H](C)c1ccccc1)[C@@H](C)c1ccccc1)[C@@H](C)c1ccccc1)[C@@H](C)c1ccccc1)[C@@H](C)c1ccccc1 [1a, (NaeNspeNspe)4] (H-[Gly(N-2-aminoethyl)][Nspe][Nspe][Gly(N-2-aminoethyl)][Nspe][Nspe][Gly(N-2-aminoethyl)][Nspe][Nspe][Gly(N-2-aminoethyl)][Nspe][Nspe]-NH2; N-terminus and C-terminus assumed) |  |  | 15 | 2 (≈ 3.41 µg/mL) | 26 | below 2 µM
